Measurements published in publication PMC6979384, “Characterization of the plant homeodomain (PHD) reader family for their histone tail interactions” (Epigenetics & Chromatin, 2020).

Columns and labels:
Test in all cases: Histone peptide microarray
Format in all cases: binding, human
RAG2 = test system: RAG2
Text: (§1) To more comprehensively define the histone interactions of the 31 PHD readers identified from the domain microarray analyses, we probed each on an alternate microarray platform containing a library of 293 synthetic histone peptides with single or combinatorial PTMs (Additional file 2: Figure S4 and Additional file 3: Table S2).
(§2) The 31 GST-tagged PHD readers identified in the PHD finger domain array were expressed and purified as previously. Histone peptide arrays and peptide pulldown assays were conducted as recently described (specifically, the optimized protocol from Petell et al. for the former).
(§3) Supplementary file 13072_2020_328_MOESM3_ESM.xlsx: Additional file 3: Table S2. […] Excel Tab Peptide List is a compiled list of the entire 293 histone peptide library with amino acid sequence ranges. […] Each number corresponds to the peptide number designated in Peptide List. Excel Tab Average Signals is a compiled set of binding data: chromatin reader at 0.5 μM vs. entire 293 peptide library. Data is presented as the average and standard deviation of 4 replicates. The average signals are colored to indicate signal intensity with green being strong and white being weak/low. […] Key: red= stronger relative binding; blue = weaker relative binding. Excel Tab Array info summary is a table summarizing the domains, sequence coverage, array signal range, and noise for each of the GST-tagged readers assayed on the peptide microarrays.

PHF13 = test system: PHF13
Text: as §1, §2, §3

DIDO1 = test system: DIDO1
Text: as §1, §2, §3

KDM4C (TTP) = test system: KDM4C (TTP)
Text: as §1, §2, §3

PHF2 = test system: PHF2
Text: as §1, §2, §3

ING4 = test system: ING4
Text: as §1, §2, §3

ING5 = test system: ING5
Text: as §1, §2, §3

PHF21A = test system: PHF21A
Text: as §1, §2, §3

DPF2 (PPC2W2) = test system: DPF2 (PPC2W2)
Text: as §1, §2, §3

BAZ2B = test system: BAZ2B
Text: as §1, §2, §3

KDM5B (1) = test system: KDM5B (1)
Text: as §1, §2, §3

TAF3 = test system: TAF3
Text: as §1, §2, §3

ING2 = test system: ING2
Text: as §1, §2, §3

BPTF (PB) = test system: BPTF (PB)
Text: as §1, §2, §3

ING3 = test system: ING3
Text: as §1, §2, §3

MLL5 = test system: MLL5
Text: as §1, §2, §3

ING1 = test system: ING1
Text: as §1, §2, §3

TRIM66 (PB) = test system: TRIM66 (PB)
Text: as §1, §2, §3

KDM5A (1) = test system: KDM5A (1)
Text: as §1, §2, §3

CHD4 (PPCC) = test system: CHD4 (PPCC)
Text: as §1, §2, §3

PHF23 = test system: PHF23
Text: as §1, §2, §3

KDM5A (3) = test system: KDM5A (3)
Text: as §1, §2, §3

MORC3 (CW) = test system: MORC3 (CW)
Text: as §1, §2, §3

CHD5 (PPCC) = test system: CHD5 (PPCC)
Text: as §1, §2, §3

KDM7A = test system: KDM7A
Text: as §1, §2, §3

KDM5B (3) = test system: KDM5B (3)
Text: as §1, §2, §3

PHF8 = test system: PHF8
Text: as §1, §2, §3

PHRF1 (RP) = test system: PHRF1 (RP)
Text: as §1, §2, §3

CHD5 (PCC) = test system: CHD5 (PCC)
Text: as §1, §2, §3

SP140L = test system: SP140L
Text: as §1, §2, §3

AIRE (PP) = test system: AIRE (PP)
Text: as §1, §2, §3

## H4K5proK8proK12pro: H4 1-23
RAG2; RAG2, sheet "Array Heatmap", each array performed twice, total n = 4
  Array Heatmap value (peptide array signal): 0.2779
PHF13; PHF13, sheet "Array Heatmap", each array performed twice, total n = 4
  Array Heatmap value (peptide array signal): 0.7138
DIDO1; DIDO1, sheet "Array Heatmap", each array performed twice, total n = 4
  Array Heatmap value (peptide array signal): 0.7693
KDM4C (TTP); KDM4C (TTP), sheet "Array Heatmap", each array performed twice, total n = 4
  Array Heatmap value (peptide array signal): 0.5585
PHF2; PHF2, sheet "Array Heatmap", each array performed twice, total n = 4
  Array Heatmap value (peptide array signal): 0.5444
ING4; ING4, sheet "Array Heatmap", each array performed twice, total n = 4
  Array Heatmap value (peptide array signal): 0.5361
ING5; ING5, sheet "Array Heatmap", each array performed twice, total n = 4
  Array Heatmap value (peptide array signal): 0.4117
PHF21A; PHF21A, sheet "Array Heatmap", each array performed twice, total n = 4
  Array Heatmap value (peptide array signal): 0.5432
DPF2 (PPC2W2); DPF2 (PPC2W2), sheet "Array Heatmap", each array performed twice, total n = 4
  Array Heatmap value (peptide array signal): 0.725
BAZ2B; BAZ2B, sheet "Array Heatmap", each array performed twice, total n = 4
  Array Heatmap value (peptide array signal): 0.5476
KDM5B (1); KDM5B (1), sheet "Array Heatmap", each array performed twice, total n = 4
  Array Heatmap value (peptide array signal): 0.629
TAF3; TAF3, sheet "Array Heatmap", each array performed twice, total n = 4
  Array Heatmap value (peptide array signal): 0.2924
ING2; ING2, sheet "Array Heatmap", each array performed twice, total n = 4
  Array Heatmap value (peptide array signal): 0.6246
BPTF (PB); BPTF (PB), sheet "Array Heatmap", each array performed twice, total n = 4
  Array Heatmap value (peptide array signal): 0.4022
ING3; ING3, sheet "Array Heatmap", each array performed twice, total n = 4
  Array Heatmap value (peptide array signal): 0.5538
MLL5; MLL5, sheet "Array Heatmap", each array performed twice, total n = 4
  Array Heatmap value (peptide array signal): 0.612
ING1; ING1, sheet "Array Heatmap", each array performed twice, total n = 4
  Array Heatmap value (peptide array signal): 0.5929
TRIM66 (PB); TRIM66 (PB), sheet "Array Heatmap", each array performed twice, total n = 4
  Array Heatmap value (peptide array signal): 0.6547
KDM5A (1); KDM5A (1), sheet "Array Heatmap", each array performed twice, total n = 4
  Array Heatmap value (peptide array signal): 0.5265
CHD4 (PPCC); CHD4 (PPCC), sheet "Array Heatmap", each array performed twice, total n = 4
  Array Heatmap value (peptide array signal): 0.656
PHF23; PHF23, sheet "Array Heatmap", each array performed twice, total n = 4
  Array Heatmap value (peptide array signal): 0.5776
KDM5A (3); KDM5A (3), sheet "Array Heatmap", each array performed twice, total n = 4
  Array Heatmap value (peptide array signal): 0.4569
MORC3 (CW); MORC3 (CW), sheet "Array Heatmap", each array performed twice, total n = 4
  Array Heatmap value (peptide array signal): 0.3861
CHD5 (PPCC); CHD5 (PPCC), sheet "Array Heatmap", each array performed twice, total n = 4
  Array Heatmap value (peptide array signal): 0.65
KDM7A; KDM7A, sheet "Array Heatmap", each array performed twice, total n = 4
  Array Heatmap value (peptide array signal): 0.3949
KDM5B (3); KDM5B (3), sheet "Array Heatmap", each array performed twice, total n = 4
  Array Heatmap value (peptide array signal): 0.4906
PHF8; PHF8, sheet "Array Heatmap", each array performed twice, total n = 4
  Array Heatmap value (peptide array signal): 0.41
PHRF1 (RP); PHRF1 (RP), sheet "Array Heatmap", each array performed twice, total n = 4
  Array Heatmap value (peptide array signal): 0.4879
CHD5 (PCC); CHD5 (PCC), sheet "Array Heatmap", each array performed twice, total n = 4
  Array Heatmap value (peptide array signal): 0.8593
SP140L; SP140L, sheet "Array Heatmap", each array performed twice, total n = 4
  Array Heatmap value (peptide array signal): 0.3966
AIRE (PP); AIRE (PP), sheet "Array Heatmap", each array performed twice, total n = 4
  Array Heatmap value (peptide array signal): 0.5223

## H3Cit2 + K4me2: H3 1-20
RAG2; GST-tagged RAG2, histone peptide array, arrays performed twice, n of 4
  Array Heatmap signal, RAG2: 0.6011
PHF13; GST-tagged PHF13, histone peptide array, arrays performed twice, n of 4
  Array Heatmap signal, PHF13: 0.6272
DIDO1; GST-tagged DIDO1, histone peptide array, arrays performed twice, n of 4
  Array Heatmap signal, DIDO1: 0.7273
KDM4C (TTP); GST-tagged KDM4C (TTP = Tandem Tudor domain + PHD), histone peptide array, arrays performed twice, n of 4
  Array Heatmap signal, KDM4C (TTP): 0.4533
PHF2; GST-tagged PHF2, histone peptide array, arrays performed twice, n of 4
  Array Heatmap signal, PHF2: 0.7165
ING4; GST-tagged ING4, histone peptide array, arrays performed twice, n of 4
  Array Heatmap signal, ING4: 0.4531
ING5; GST-tagged ING5, histone peptide array, arrays performed twice, n of 4
  Array Heatmap signal, ING5: 0.3412
PHF21A; GST-tagged PHF21A, histone peptide array, arrays performed twice, n of 4
  Array Heatmap signal, PHF21A: 0.4507
DPF2 (PPC2W2); GST-tagged DPF2 (PPC2W2 = Dual PHD + C2W2-type Zn-finger), histone peptide array, arrays performed twice, n of 4
  Array Heatmap signal, DPF2 (PPC2W2): 0.6839
BAZ2B; GST-tagged BAZ2B, histone peptide array, arrays performed twice, n of 4
  Array Heatmap signal, BAZ2B: 0.45
KDM5B (1); GST-tagged KDM5B (1), histone peptide array, arrays performed twice, n of 4
  Array Heatmap signal, KDM5B (1): 0.6545
TAF3; GST-tagged TAF3, histone peptide array, arrays performed twice, n of 4
  Array Heatmap signal, TAF3: 0.4779
ING2; GST-tagged ING2, histone peptide array, arrays performed twice, n of 4
  Array Heatmap signal, ING2: 0.6329
BPTF (PB); GST-tagged BPTF (PB = PHD + Bromodomain), histone peptide array, arrays performed twice, n of 4
  Array Heatmap signal, BPTF (PB): 0.3387
ING3; GST-tagged ING3, histone peptide array, arrays performed twice, n of 4
  Array Heatmap signal, ING3: 0.4571
MLL5; GST-tagged MLL5, histone peptide array, arrays performed twice, n of 4
  Array Heatmap signal, MLL5: 0.5743
ING1; GST-tagged ING1, histone peptide array, arrays performed twice, n of 4
  Array Heatmap signal, ING1: 0.5902
TRIM66 (PB); GST-tagged TRIM66 (PB = PHD + Bromodomain), histone peptide array, arrays performed twice, n of 4
  Array Heatmap signal, TRIM66 (PB): 0.6817
KDM5A (1); GST-tagged KDM5A (1), histone peptide array, arrays performed twice, n of 4
  Array Heatmap signal, KDM5A (1): 0.4439
CHD4 (PPCC); GST-tagged CHD4 (PPCC = Dual PHD + Dual Chromodomain), histone peptide array, arrays performed twice, n of 4
  Array Heatmap signal, CHD4 (PPCC): 0.5675
PHF23; GST-tagged PHF23, histone peptide array, arrays performed twice, n of 4
  Array Heatmap signal, PHF23: 0.5864
KDM5A (3); GST-tagged KDM5A (3), histone peptide array, arrays performed twice, n of 4
  Array Heatmap signal, KDM5A (3): 0.6902
MORC3 (CW); GST-tagged MORC3 (CW = CW-type Zn-finger), histone peptide array, arrays performed twice, n of 4
  Array Heatmap signal, MORC3 (CW): 0.7482
CHD5 (PPCC); GST-tagged CHD5 (PPCC = Dual PHD + Dual Chromodomain), histone peptide array, arrays performed twice, n of 4
  Array Heatmap signal, CHD5 (PPCC): 0.5328
KDM7A; GST-tagged KDM7A, histone peptide array, arrays performed twice, n of 4
  Array Heatmap signal, KDM7A: 0.3325
KDM5B (3); GST-tagged KDM5B (3), histone peptide array, arrays performed twice, n of 4
  Array Heatmap signal, KDM5B (3): 0.6867
PHF8; GST-tagged PHF8, histone peptide array, arrays performed twice, n of 4
  Array Heatmap signal, PHF8: 0.4758
PHRF1 (RP); GST-tagged PHRF1 (RP), histone peptide array, arrays performed twice, n of 4
  Array Heatmap signal, PHRF1 (RP): 0.4884
CHD5 (PCC); GST-tagged CHD5 (PCC = PHD + Dual Chromodomain), histone peptide array, arrays performed twice, n of 4
  Array Heatmap signal, CHD5 (PCC): 0.7759
SP140L; GST-tagged SP140L, histone peptide array, arrays performed twice, n of 4
  Array Heatmap signal, SP140L: 0.366
AIRE (PP); GST-tagged AIRE (PP), histone peptide array, arrays performed twice, n of 4
  Array Heatmap signal, AIRE (PP): 0.3883
